Laboratory results published in patent US20170342451A1, “BIOSYNTHESIS OF PACLITAXEL INTERMEDIATE” (Board of Trustees of Michigan State University, priority 2012, published 2017).

Target: T1, TycA (Brevibacillus parabrevis, UniProt P09095)
T1 construct: this wild-type tycA cDNA encoding the A-, T-, and E-domains was subcloned into a pSU18 vector; made in house; host or cells: Escherichia coli BL21(DE3)
T1 sequence (P09095 with tags, fused parts or gaps): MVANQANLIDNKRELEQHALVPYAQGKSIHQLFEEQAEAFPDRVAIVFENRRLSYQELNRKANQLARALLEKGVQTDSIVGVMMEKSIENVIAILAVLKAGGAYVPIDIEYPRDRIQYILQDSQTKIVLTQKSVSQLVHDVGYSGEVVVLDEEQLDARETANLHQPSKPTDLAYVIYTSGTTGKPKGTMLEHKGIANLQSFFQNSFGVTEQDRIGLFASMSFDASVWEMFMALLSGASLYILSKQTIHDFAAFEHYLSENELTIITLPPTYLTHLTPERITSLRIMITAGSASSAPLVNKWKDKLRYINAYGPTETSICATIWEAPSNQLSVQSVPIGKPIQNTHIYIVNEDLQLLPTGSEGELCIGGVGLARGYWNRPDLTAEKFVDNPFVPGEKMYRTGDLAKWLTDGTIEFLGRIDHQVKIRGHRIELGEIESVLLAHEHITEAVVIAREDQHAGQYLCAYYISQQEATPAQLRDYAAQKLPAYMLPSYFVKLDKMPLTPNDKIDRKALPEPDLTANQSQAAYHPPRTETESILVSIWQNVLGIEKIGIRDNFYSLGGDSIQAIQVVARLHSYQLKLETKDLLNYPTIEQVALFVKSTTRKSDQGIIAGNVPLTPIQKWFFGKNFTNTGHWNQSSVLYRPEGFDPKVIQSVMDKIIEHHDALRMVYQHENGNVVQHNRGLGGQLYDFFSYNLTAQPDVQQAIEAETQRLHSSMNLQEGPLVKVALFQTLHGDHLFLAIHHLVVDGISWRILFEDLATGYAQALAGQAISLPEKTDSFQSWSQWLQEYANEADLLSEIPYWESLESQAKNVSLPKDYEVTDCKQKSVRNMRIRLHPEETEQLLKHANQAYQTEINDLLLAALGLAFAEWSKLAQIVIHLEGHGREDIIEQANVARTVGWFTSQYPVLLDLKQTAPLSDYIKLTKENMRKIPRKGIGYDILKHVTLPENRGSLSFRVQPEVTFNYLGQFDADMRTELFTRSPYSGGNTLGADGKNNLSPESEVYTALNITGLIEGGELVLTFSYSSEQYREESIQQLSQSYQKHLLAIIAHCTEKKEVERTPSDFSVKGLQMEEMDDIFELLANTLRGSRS
Assay: CoA ligase reaction kinetics, TycA
Type: biochemical, Brevibacillus brevis
Conditions: for kcat^CoA: turnover with CoA at apparent saturation
Procedure: Under steady-state conditions, (S)-α-phenylalanine, (R)-β-phenylalanine, and (2R,3S)-phenylisoserine at 5, 10, 20, 40, 80, 160, 250, 500, 1000 and 2000 μM were separately incubated with TycA or TycA-S563A (20 μg) for 30 min. At the end of each reaction, and prior to mass spectrometry analysis, acetyl CoA (1 μM) was added as the internal standard to each sample to correct for variations of the analyte. The products of the enzyme-catalyzed reaction were quantified by a liquid chromatography multiple reaction monitoring (LC-ESI-MRM) mass spectrometry technique (Anderson & Hunter, Mol. Cell. Proteomics 5: 573-588 (2006)) on the Quattro-Premier Electro-Spray Mass Spectrometer coupled with Acquity® UPLC system fitted with a C18 Ascentis Express column (2.5×50 mm, 2.7 μm) at 30° C. An aliquot (5 μL) of each sample was loaded onto the column and the analytes were eluted with a solvent gradient of acetonitrile (Solvent A) in 0.05% triethylamine in distilled water (Solvent B). Elution was held at 2.5% Solvent A for 3.17 min, increased to 100% Solvent A over 5 sec with a 2-min hold, and then returned to 2.5% Solvent A over 5 sec with a 50-sec hold. The flow rate employed was 0.4 mL/min. The effluent from the chromatography column was directed to the mass spectrometer where the first quadrupole mass analyzer (in negative ion mode) was set to select for the molecular ion of a biosynthesized acyl CoA product. The selected ion was then directed to a collision gas chamber where the collision energy was optimized to maximize the abundance of a single signature fragment ion (m/z 408, characteristic of acyl CoA thioesters) resolved in the second quadrupole mass analyzer by the MRM method. The peak area under the curve of fragment ion m/z 408 for each biosynthetic phenylpropionyl CoA thioester was converted to concentration by comparing the peak area of the same ion produced by authentic CoA (at 0.05, 0.1, 0.2, 0.4, 0.8, 1.6, 3.2, 6.4, 12.5, 25, 50, 100 μM) using linear regression analysis.
The KM values of TycA and TycA-S563A for CoA were assessed by incubating each enzyme separately with (S)-α-phenylalanine (1 mM), MgCl2 (3 mM), ATP (1 mM), and CoA at 0.05, 0.1, 0.2, 0.4, 0.8, 1.6, 3.2, 6.4, 12.8 and 25.6 mM at 31° C. for 20 min. At the end of each reaction and prior to mass spectrometry analysis, acetyl CoA (1 μM) was added as the internal standard to each sample to correct for variations of the analyte. The products of the enzyme-catalyzed reaction were quantified by LC-ESI-MRM, and the monitored fragment ion (m/z 408) derived from the CoA moiety of the thioester analytes in the effluent was quantified identically to the procedure described earlier herein.

[1] = TycA, CoA with (S)-α-Phe as cosubstrate

| SMILES | catalytic preference of TycA, higher than for (2R,3S)-Phenylisoserine (TycA with CoA) [fold] | catalytic preference of TycA, higher than for (S)-α-Phe (TycA with CoA) [fold] | kcat^CoA [1] [s⁻¹] | Km (TycA, CoA 1 mM, ATP 1 mM, MgCl2 3 mM, 31° C., CoA with (S)-α-Phe as cosubstrate) [µM] |
| --- | --- | --- | --- | --- |
| N[C@H](CC(=O)O)c1ccccc1 [(R)-β-Phe, (R)-β-phenylalanine] | 10 | 5 | 0.0267 ± 0.005 | – |
| N[C@@H](c1ccccc1)[C@@H](O)C(=O)O [(2R,3S)-PheIso, (2R,3S)-phenylisoserine] | – | – | 0.00417 ± 0.00033 | 89.3 ± 15 |
